# Test results from patent US12145944B2, “Imidazopyrimidines as EED inhibitors and the use thereof” (THE REGENTS OF THE UNIVERSITY OF MICHIGAN, priority 2019, dated 2024).
# Test system: KARPAS422 human B cell lymphoma cell
# Test: Cell proliferation, KARPAS422, 7 day treatment (WST-8)
# Type: cell-based
# Settings: Homo sapiens, KARPAS-422, 168 h, anti-proliferative IC50, Karpas 422 cell line, 7 day treatment; read-out: Karpas Cell line
# Protocol: (§1) “N/A” stands for “not assessed”.
# Analysis of Cell Proliferation:
# (§2) To assess the effect of PRC2 inhibition on cell growth, cells were seeded in 96-well cell culture plates at a density of 2 000-3 000 cells/well in 200 µL of culture medium, and treated with serially diluted compounds for 7 days at 37° C. in an atmosphere of 5% CO2. Cell growth was evaluated by a […] WST-8 assay (Dojindo Molecular Technologies) using a Tecan Infinite M1000 multimode microplate reader (Tecan, Morrisville, NC). The WST-8 reagent was added to the plate, incubated for 1-4 h, and read at 450 nm. The readings were normalized to the DMSO-treated cells, and the IC50 was calculated by nonlinear regression analysis using GraphPad Prism 6 software
row,SMILES,IC50 [nM]
1,"Fc1ccc2c(c1CNc1ncc3c4c(ncn14)COCc1ncccc1-3)CCO2 [Cpd. No. 2, N-((5-fluoro-2,3-dihydrobenzofuran-4-yl)methyl)-3H,5H-4-oxa-2,6,11,12a-tetraazabenzo[4,5]cycloocta[1,2,3-cd]inden-12-amine]",> 100
2,"O=C1OCc2ncccc2-c2cnc(NCc3c(F)ccc4c3CCO4)n3cnc1c23 [Cpd. No. 12, 12-(((5-fluoro-2,3-dihydrobenzofuran-4-yl)methyl)amino)-3H,5H-4-oxa-2,6,11,12a-tetraazabenzo[4,5]cycloocta[1,2,3-cd]inden-3-one]",3.84
3,"O=C1NCc2ncccc2-c2cnc(NCc3c(F)ccc4c3CCO4)n3cnc1c23 [Cpd. No. 16, 12-(((5-fluoro-2,3-dihydrobenzofuran-4-yl)methyl)amino)-4,5-dihydro-3H-2,4,6,11,12a-pentaazabenzo[4,5]cycloocta[1,2,3-cd]inden-3-one]",14.7
4,"O=C1c2ncn3c(NCc4c(F)ccc5c4CCO5)ncc(c23)-c2ccc(C(F)(F)F)cc2CN1C1CC1 [compound 67, 4-cyclopropyl-12-(((5-fluoro-2,3-dihydrobenzofuran-4-yl)methyl)amino)-7-(trifluoromethyl)-4,5-dihydro-3H-2,4,11,12a-tetraazabenzo[4,5]cycloocta[1,2,3-cd]inden-3-one]",7.78
5,"O=C1c2ncn3c(NCc4c(F)ccc5c4CCO5)ncc(c23)-c2ccc(C(F)(F)F)cc2CN1CC1COCCO1 (centres unmarked) [compound 68, 4-((1,4-dioxan-2-yl)methyl)-12-(((5-fluoro-2,3-dihydrobenzofuran-4-yl)methyl)amino)-7-(trifluoromethyl)-4,5-dihydro-3H-2,4,11,12a-tetraazabenzo[4,5]cycloocta[1,2,3-cd]inden-3-one]",1.35
6,"COc1cccc(F)c1CNc1ncc2c3c(ncn13)C(=O)N(C1CC1)Cc1nc(C(F)(F)F)ccc1-2 [compound 69, 4-cyclopropyl-12-((2-fluoro-6-methoxybenzyl)amino)-7-(trifluoromethyl)-4,5-dihydro-3H-2,4,6,11,12a-pentaazabenzo[4,5]cycloocta[1,2,3-cd]inden-3-one]",> 100
7,"COc1cccc(F)c1CNc1ncc2c3c(ncn13)C(=O)N(C1CC1)Cc1cc(C(F)(F)F)ncc1-2 [compound 70, 4-cyclopropyl-12-((2-fluoro-6-methoxybenzyl)amino)-7-(trifluoromethyl)-4,5-dihydro-3H-2,4,8,11,12a-pentaazabenzo[4,5]cycloocta[1,2,3-cd]inden-3-one]",> 100
8,"COc1cccc(F)c1CNc1ncc2c3c(ncn13)C(=O)N(C(C)C)Cc1nc(C(F)(F)F)ccc1-2 [compound 71, 12-((2-fluoro-6-methoxybenzyl)amino)-4-isopropyl-7-(trifluoromethyl)-4,5-dihydro-3H-2,4,6,11,12a-pentaazabenzo[4,5]cycloocta[1,2,3-cd]inden-3-one]",> 100
9,"O=C1c2ncn3c(NCc4c(F)ccc5c4CCO5)ncc(c23)-c2cnc(C(F)(F)F)cc2CN1CCF [compound 72, 12-(((5-fluoro-2,3-dihydrobenzofuran-4-yl)methyl)amino)-4-(2-fluoroethyl)-7-(trifluoromethyl)-4,5-dihydro-3H-2,4,8,11,12a-pentaazabenzo[4,5]cycloocta[1,2,3-cd]inden-3-one]",3.86
10,"CC(C)N1Cc2cc(C(F)(F)F)ncc2-c2cnc(NCc3c(F)ccc4c3CCO4)n3cnc(c23)C1=O [compound 73, 12-(((5-fluoro-2,3-dihydrobenzofuran-4-yl)methyl)amino)-4-isopropyl-7-(trifluoromethyl)-4,5-dihydro-3H-2,4,8,11,12a-pentaazabenzo[4,5]cycloocta[1,2,3-cd]inden-3-one]",11.3
11,"CN1CCC(N2Cc3cc(C(F)(F)F)ccc3-c3cnc(NCc4c(F)ccc5c4CCO5)n4cnc(c34)C2=O)CC1 [compound 74, 12-(((5-fluoro-2,3-dihydrobenzofuran-4-yl)methyl)amino)-4-(1-methylpiperidin-4-yl)-7-(trifluoromethyl)-4,5-dihydro-3H-2,4,11,12a-tetraazabenzo[4,5]cycloocta[1,2,3-cd]inden-3-one]",47
12,"CC(F)(F)CN1Cc2nc(C(F)(F)F)ccc2-c2cnc(NCc3c(F)ccc4c3CCO4)n3cnc(c23)C1=O [compound 77, 4-(2,2-difluoropropyl)-12-(((5-fluoro-2,3-dihydrobenzofuran-4-yl)methyl)amino)-7-(trifluoromethyl)-4,5-dihydro-3H-2,4,6,11,12a-pentaazabenzo[4,5]cycloocta[1,2,3-cd]inden-3-one]",22.5
13,"O=C1c2ncn3c(NCc4c(F)ccc5c4CCO5)ncc(c23)-c2ccc(C(F)(F)F)cc2CN1CC(F)F [compound 81, 4-(2,2-difluoroethyl)-12-(((5-fluoro-2,3-dihydrobenzofuran-4-yl)methyl)amino)-7-(trifluoromethyl)-4,5-dihydro-3H-2,4,11,12a-tetraazabenzo[4,5]cycloocta[1,2,3-cd]inden-3-one]",1.43
14,"CCOC(=O)c1ncn2c(NCc3ccccc3OC)ncc(-c3ccccc3)c12 [compound 129, ethyl 5-((2-methoxybenzyl)amino)-8-phenylimidazo[1,5-c]pyrimidine-1-carboxylate]",> 100

# Further lines, results first:
row,IC50 [nM],SMILES
1,> 100,"CCOC(=O)c1ncn2c(NCc3c(F)cccc3OC)ncc(-c3ccccc3)c12 [compound 130, ethyl 5-((2-fluoro-6-methoxybenzyl)amino)-8-phenylimidazo[1,5-c]pyrimidine-1-carboxylate]"
2,> 100,"CCOC(=O)c1ncn2c(NCc3cc(OC)ccc3F)ncc(-c3ccccc3)c12 [compound 132, ethyl 5-((2-fluoro-5-methoxybenzyl)amino)-8-phenylimidazo[1,5-c]pyrimidine-1-carboxylate]"
3,> 100,"CCOC(=O)c1ncn2c(NCc3c(F)ccc(OC)c3Cl)ncc(-c3ccccc3)c12 [compound 133, ethyl 5-((2-chloro-6-fluoro-3-methoxybenzyl)amino)-8-phenylimidazo[1,5-c]pyrimidine-1-carboxylate]"
4,> 100,"CCOC(=O)c1ncn2c(NCc3cccc4c3OCO4)ncc(-c3ccccc3)c12 [compound 134, ethyl 5-((benzo[d][1,3]dioxol-4-ylmethyl)amino)-8-phenylimidazo[1,5-c]pyrimidine-1-carboxylate]"
5,7.07,"CCOC(=O)c1ncn2c(NCc3c(F)ccc4c3CCO4)ncc(-c3ccccc3)c12 [compound 135, ethyl 5-(((5-fluoro-2,3-dihydrobenzofuran-4-yl)methyl)amino)-8-phenylimidazo[1,5-c]pyrimidine-1-carboxylate]"
6,> 100,"CNC(=O)c1ncn2c(NCc3ccccc3OC)ncc(-c3ccccc3)c12 [compound 136, 5-((2-methoxybenzyl)amino)-N-methyl-8-phenylimidazo[1,5-c]pyrimidine-1-carboxamide]"
7,> 100,"CNC(=O)c1ncn2c(NCc3c(F)cccc3OC)ncc(-c3ccccc3)c12 [compound 137, 5-((2-fluoro-6-methoxybenzyl)amino)-N-methyl-8-phenylimidazo[1,5-c]pyrimidine-1-carboxamide]"
8,> 100,"CNC(=O)c1ncn2c(NCc3c(F)ccc(F)c3OC)ncc(-c3ccccc3)c12 [compound 138, 5-((3,6-difluoro-2-methoxybenzyl)amino)-N-methyl-8-phenylimidazo[1,5-c]pyrimidine-1-carboxamide]"
9,> 100,"CNC(=O)c1ncn2c(NCc3cc(OC)ccc3F)ncc(-c3ccccc3)c12 [compound 139, 5-((2-fluoro-5-methoxybenzyl)amino)-N-methyl-8-phenylimidazo[1,5-c]pyrimidine-1-carboxamide]"
10,> 100,"CNC(=O)c1ncn2c(NCc3c(F)ccc(OC)c3Cl)ncc(-c3ccccc3)c12 [compound 140, 5-((2-chloro-6-fluoro-3-methoxybenzyl)amino)-N-methyl-8-phenylimidazo[1,5-c]pyrimidine-1-carboxamide]"
11,> 100,"CNC(=O)c1ncn2c(NCc3cccc4c3OCO4)ncc(-c3ccccc3)c12 [compound 141, 5-((benzo[d][1,3]dioxol-4-ylmethyl)amino)-N-methyl-8-phenylimidazo[1,5-c]pyrimidine-1-carboxamide]"
12,> 100,"CNC(=O)c1ncn2c(NCc3c(F)ccc4c3CCO4)ncc(-c3ccccc3)c12 [compound 142, 5-(((5-fluoro-2,3-dihydrobenzofuran-4-yl)methyl)amino)-N-methyl-8-phenylimidazo[1,5-c]pyrimidine-1-carboxamide]"

# Same assay, conditions: Homo sapiens, KARPAS-422, 168 h, read-out: Karpas Cell line (nM)
row,IC50 [nM],SMILES
1,1.88,"Cc1ccc(-c2cnc(NCc3c(F)ccc4c3CCO4)n3cnc(S(C)(=O)=O)c23)cn1 [compound 103, N-((5-fluoro-2,3-dihydrobenzofuran-4-yl)methyl)-8-(6-methylpyridin-3-yl)-1-(methylsulfonyl)imidazo[1,5-c]pyrimidin-5-amine]"
2,10.8,"CS(=O)(=O)c1ccc(-c2cnc(NCc3c(F)ccc4c3CCO4)n3cnc(S(C)(=O)=O)c23)cn1 [compound 105, N-((5-fluoro-2,3-dihydrobenzofuran-4-yl)methyl)-1-(methylsulfonyl)-8-(6-(methylsulfonyl)pyridin-3-yl)imidazo[1,5-c]pyrimidin-5-amine]"

# Test system: Pfeiffer cell line
# Test: Anti-proliferative activity, Pfeiffer cell line, 7 day treatment
# Type: cell-based
# Settings: Homo sapiens, 168 h; anti-proliferative IC50, Pfeiffer cell line, 7 day treatment; read-out: Pfeiffer Cell line
# Protocol: as §1, §2
row,IC50 [µM],SMILES
1,> 0.1,"Fc1ccc2c(c1CNc1ncc3c4c(ncn14)COCc1ncccc1-3)CCO2 [Cpd. No. 2, N-((5-fluoro-2,3-dihydrobenzofuran-4-yl)methyl)-3H,5H-4-oxa-2,6,11,12a-tetraazabenzo[4,5]cycloocta[1,2,3-cd]inden-12-amine]"
2,0.084,"O=C1Nc2ccccc2-c2cnc(NCc3c(F)ccc4c3CCO4)n3cnc1c23 [Cpd. No. 3, 11-(((5-fluoro-2,3-dihydrobenzofuran-4-yl)methyl)amino)-2,4,10,11a-tetraazadibenzo[cd,f]azulen-3(4H)-one]"
3,0.00065,"O=C1OCc2ncccc2-c2cnc(NCc3c(F)ccc4c3CCO4)n3cnc1c23 [Cpd. No. 12, 12-(((5-fluoro-2,3-dihydrobenzofuran-4-yl)methyl)amino)-3H,5H-4-oxa-2,6,11,12a-tetraazabenzo[4,5]cycloocta[1,2,3-cd]inden-3-one]"
4,0.00339,"O=C1NCc2ncccc2-c2cnc(NCc3c(F)ccc4c3CCO4)n3cnc1c23 [Cpd. No. 16, 12-(((5-fluoro-2,3-dihydrobenzofuran-4-yl)methyl)amino)-4,5-dihydro-3H-2,4,6,11,12a-pentaazabenzo[4,5]cycloocta[1,2,3-cd]inden-3-one]"
